Reference: US20220000818A1, “COMPOSITIONS FOR USE IN PREVENTING ACNE” (Nogra Pharma Limited, priority 2019, published 2022)

Key:
Assay type in all cases: cell-based, human
[1] = system: pAkt and pS6 (PI3K/Akt pathway) in SZ95 sebocytes; experiment: Western blot of insulin-induced pAkt and pS6 in SZ95 sebocytes; details: SZ95-SF cells, 0.1 μM insulin and 1 mM NAC-GED0507, 24 hours
Protocol: (§1) Immortalized human SZ95 sebocytes (Zouboulis et al., 1999), showing morphologic, phenotypic, and functional characteristics of normal human sebocytes, were cultured in 5% CO2 at 37° C. in Sebomed basal medium, 1% L-glutamine, 1% penicillin/streptomycin, 5 ng/mL recombinant human epidermal growth factor, and 1 mM CaCl2, with or without 10% FBS supplement. All experiments were performed at least in triplicate.
(§2) For protein extraction, cells were lysed in RIPA buffer (50 mM Tris-HCl pH 7.4, 1% Nonidet P40, 0.25% deoxycholate, 150 mM NaCl, 1 mM EDTA, 1 mM PMSF, 1 mM Na3VO4, 5 mM NaF), supplemented with a protease inhibitor cocktail (Roche, Mannheim, Germany), for 30 minutes at 4° C., then sonicated. Total cell lysates were clarified by centrifugation at 12,000 rpm for 10 minutes at 4° C. and then stored at −80° C. until analysis.
(§3) Protein levels were measured by spectrophotometry, and protein (50 μg) was loaded and resolved using an acrylamide SDS-PAGE gel, and finally transferred onto a nitrocellulose membrane (Amersham Biosciences, Milan, Italy). Protein transfer efficiency was evaluated by Ponceau S staining (Sigma-Aldrich). […] Protein levels were quantified by measuring optical density of specific bands using a UVI-TEC System (Eppendorf, Hamburg, Germany). […]

[2] = system: SREBP-1, FAS, FADS-2, SCD-1, DGAT1 mRNA in SZ95 sebocytes; experiment: Real-time RT-PCR of lipidogenic gene mRNA in SZ95 sebocytes
Protocol: as §1
Total RNA was isolated using the Aurum™ Total RNA Mini kit (Bio-Rad Laboratories Srl; Milan, Italy). Total RNA quantity, purity, and the absence of ribonuclease activity were assessed by OD260/280 absorbance measurements and by agarose gel electrophoresis. Total RNA samples were stored at −80° C. until use. Following DNAse I treatment, cDNA was synthesized using a mix of oligo-dT and random primers and RevertAid™ First Strand cDNA synthesis kit (Thermo Fisher Scientific; Monza, Italy). Quantitative real time RT-PCR was performed in a total volume of 15 μL with SYBR Green PCR Master Mix (Bio-Rad Laboratories Srl) and 200 nM concentration of each primer.
Reactions were carried out in triplicate using an iQ™ 5 iCycler supplied with the iQ™ 5 Real-Time Detection System (Bio-Rad Laboratories; Hercules, Calif., USA). Melt curve analysis was performed to confirm the specificity of the amplified products. Expression of mRNA species was normalized to the expression of GAPDH mRNA by the change in the Δ cycle threshold (ΔCt) method and calculated based on 2^−Δct.
SZ95-S and SZ95-SF sebocytes were cultured for an additional 24 hours in the presence of 0.1 μM insulin and/or 1 mM NAC-GED0507.

lipoxygenase (LOX) = experiment: Lipoxygenase activity assay in SZ95 sebocyte lysates; details: SZ95-S and SZ95-SF cells, 0.1 μM insulin and NAC-GED0507
Protocol: Immortalized human SZ95 sebocytes (Zouboulis et al., 1999), showing morphologic, phenotypic, and functional characteristics of normal human sebocytes, were cultured in 5% CO2 at 37° C. in Sebomed basal medium, 1% L-glutamine, 1% penicillin/streptomycin, 5 ng/mL recombinant human epidermal growth factor, and 1 mM CaCl2, with or without 10% FBS supplement. All experiments were performed at least in triplicate. Lipoxygenase (LOX) activity was evaluated spectrophotometrically by monitoring the conversion of the LOX substrate linoleic acid (LA) to the corresponding hydroperoxy fatty acid. SZ95 sebocytes were lysed in 50 mM Tris/HCl buffer (pH 7.4) (Merck; Darmstadt, Germany) by repeated freezing in liquid nitrogen and thawing. Protein content was determined by Bradford assay using bovine serum albumin as the protein standard. Aliquots of supernatants containing 50 μg of protein were added to Tris/HCl buffer containing 200 μM LA in a final volume of 1 mL. All reactions were performed in 1-cm path length quartz cuvettes. The absorbance at 234 nm was recorded at room temperature for 10 minutes using a Lambda 25 UV/Vis spectrophotometer (Perkin-Elmer, UK). SZ95 sebocytes cultured under serum and serum-free conditions were analyzed for LOX expression. SZ95-SF sebocytes expressed slightly higher basal levels of LOX compared to SZ95-S sebocytes (data not shown). […]

[3] = system: IL-6 release from SZ95 sebocytes; experiment: IL-6 release ELISA in SZ95 sebocytes; details: all sebocytes (SZ95-SF and SZ95-S), 0.1 μM insulin
Protocol: as §1
SZ95 culture supernatants were collected and centrifuged to remove cell debris. Aliquots were then stored at −80° C. until use. IL-6 protein level was determined by ELISA (Life Technologies, Invitrogen; Milan, Italy), and normalized for cell number. In stratum corneum specimens, concentration of IL-1α was assessed by ELISA (Life Technologies, Invitrogen, Milan, Italy), and normalized against the total amount of soluble protein. Levels of IL-1α were reported as pg/pg protein. The results represent the average of three independent experiments performed in triplicate.
To determine the effect of insulin exposure on inflammatory cytokine release in sebocytes at different stages of differentiation, IL-6 release was measured by ELISA following exposure of SZ95-SF and SZ95-S sebocytes to 0.1 μM insulin.

SZ95 sebocytes [4] = experiment: Metabolic activity and cell viability of SZ95 sebocytes; details: SZ95-S or SZ95-SF sebocytes exposed to NAC-GED0507
Protocol: as §1
SZ95-SF and SZ95-S sebocytes were cultured for an additional 24 hours in the presence of 0.1 μM insulin and/or 1 mM of the PPARγ modulator N-acetyl-(S)-3-(4′-aminophenyl)-2-methoxypropionic acid (“NAC-GED0507”).

SZ95 sebocytes [5] = experiment: GC-MS analysis of fatty acid production (lipogenesis) in SZ95 sebocytes; details: insulin and NAC-GED0507, 48 hours or 72 hours
Protocol: as §1
Lipids were extracted from SZ95 sebocytes using a modified version of the protocol described in Bligh E G and Dyer W J, J Biochem Physiol, 1959. Lipids were extracted with chloroform: methanol (2:1) solution (2×1 mL) after the addition of butylhydroxytoluene to prevent oxidation of oxygen sensitive compounds. 5 μg of methylated tricosanoic acid was added as internal standard to control the analytical performance and to calculate the relative abundance of the fatty acids detected. Organic layers were collected and evaporated under nitrogen. Dried lipid extract was dissolved in 100 μL acetone/methanol/isopropanol (40:40:20) solution and 20 μL were used for the analysis of bound fatty acids (FA).
Bound fatty acids (FA) were analyzed as FA methyl esters (FAME) obtained after derivatization. For simultaneous saponification and methylation of bound FA, 250 μL KOH solution (0.5 M) in anhydrous methanol was added to the dried extract and incubated at 37° C. for 20 minutes with constant shaking. 0.5 mL HCl (0.25 M) was added to neutralize the alkaline reaction mixture. After vortexing, 0.25 mL K2SO4 (6.7%) and 1 mL hexane:isopropanol (3:2 v/v) solution containing 0.0025% BHT were added and vortexed. After centrifugation, the lipid enriched upper phase was transferred to an Eppendorf tube and evaporated under nitrogen. The dried FAME extract was dissolved in 50 μL n-hexane and analyzed by GC-MS to establish FA profiles in the lipid extracts (Thermo-Finnigan, Waltham, Mass., USA). Chromatographic separation was carried out on a HP-FFAP capillary column (Agilent Technologies, Santa Clara, Calif., USA; crosslinked FFAP, length 50 m, film thickness 0.52 μm). Helium was used as the carrier gas. The initial GC oven temperature was 40° C. and was linearly ramped up to 240° C. at 8° C./min. The total run time was 60 min. The injector and the GC-MS transfer lines were kept at 230° C. and 250° C., respectively. Total ion chromatograms (TIC) were acquired, and areas of single peaks, corresponding to the FAME, were integrated with the qualitative analysis software. Identity of the detected FAME was verified by comparison with authentic standards and matched with library spectral data.
SZ95-SF and SZ95-S sebocytes were also cultured for 48 hours or 72 hours in the presence of insulin and NAC-GED0507.

SZ95 sebocytes [6] = experiment: LC-MS analysis of 5-HETE and 15-HETE in SZ95 cell media; details: SZ95-SF and SZ95-S sebocytes, insulin and NAC-GED0507
Protocol: as §1
Levels of the polyunsaturated fatty acids 5-hydroxyeicosatetraenoic acid (5-HETE) and 15-hydroxyeicosatetraenoic acid (15-HETE) in cell media were measured by HPLC\MS\MS. Chromatographic separation was carried out using an Agilent Technologies 1200 HPLC Liquid Chromatography System (Palo Alto, Calif., USA) with a Symmetry C18 column ([…], 100 mm×2.1 mm; Waters, Milford, Mass., USA) as previously reported (Furugen A et al., (2015) “Simultaneous quantification of leukotrienes and hydroxyeicosatrienoic acids in cell culture medium using liquid chromatography/tandem mass spectrometry” Biomed Chromatogr 29:1084-1093). […] For each compound to be quantified, an internal standard was selected and a linear curve was generated where the ratio of analyte standard peak area to internal standard peak area was plotted against the amount of analyte standard. The results were calculated as nM/106 cells and then reported as % variation vs control values. […]

[7] = system: PPARγ and EMA protein in SZ95-SF cells; experiment: Western blot of PPARγ and EMA (sebocyte differentiation) in SZ95-SF cells; details: 24 hours
Protocol: as §1, §2, §3

[8] = SZ95-SF cells, pre-treatment with NAC-GED0507

In the case of `CO[C@@H](Cc1ccc(NC(C)=O)cc1)C(=O)O` [NAC-GED0507, N-acetyl-(S)-3-(4′-aminophenyl)-2-methoxypropionic acid], the “insulin-induced pAkt” value [1] is reported as “significant decrease”, the “insulin-induced pS6” value [1] is reported as “significant decrease” and the “up-regulation of lipidogenic genes (SREBP-1, FAS, FADS-2, SCD-1 mRNA) observed with insulin alone” value ([2]; 0.1 μM insulin and 1 mM NAC-GED0507, 24 hours) is reported as “significantly inhibited”. For the same compound, the “DGAT1 mRNA levels (decreased by insulin)” value ([2]; SZ95-SF cells, 0.1 μM insulin) was “countered the effects of insulin exposure”, the “insulin-stimulated FADS2 mRNA expression” value [2, 8] was “reduced the effect” and the “insulin-stimulated SCD1 mRNA expression” value [2, 8] was “reduced the effect”. For the same compound, the “insulin-stimulated SREBP1 mRNA expression” value [2, 8] was “reduced the effect”, the “insulin-induced increase in LOX activity” value (lipoxygenase (LOX)) was “inhibited” and the IL-6 cytokine release [3] was “significantly reduced”. The cell viability (SZ95 sebocytes [4]) was “No significant changes”, the metabolic activity (SZ95 sebocytes [4]) was “No significant changes” and the “production of mono-unsaturated fatty acids in response to insulin” value (SZ95 sebocytes [5]; SZ95-SF sebocytes) was “significantly inhibited”. The “production of poly-unsaturated fatty acids in response to insulin” value (SZ95 sebocytes [5]; SZ95-SF sebocytes) was “significantly inhibited”, the “total fatty acid synthesis stimulated by insulin” value (SZ95 sebocytes [5]; SZ95-SF sebocytes) was “significantly inhibited” and the “inhibition of unsaturated fatty acid production in SZ95-SF in comparison to SZ95-S sebocytes” value (SZ95 sebocytes [5]) was “relatively more robust”. The “increase in 5-HETE stimulated by insulin” value (SZ95 sebocytes [6]) was “countered the increase”, the “increase in 15-HETE stimulated by insulin” value (SZ95 sebocytes [6]) was “countered the increase” and the EMA protein expression [7] was “increase”. For the same compound, the PPARγ protein expression [7] was “increase”.
